Source: patent EP3095872A1, “A METHOD OF PRODUCING ALPHA AMINO ACIDS” (Evonik Degussa GmbH, priority 2015, dated 2016)
Marks after values point to notes of the source that are not given here.

How the values were obtained:
P450Cla [1] = assay: alpha-hydroxylation of selected fatty acids, catalytic and kinetic characterization of P450Cla; format: biochemical; details: for Product: 10 mM fatty acid, 0.5 µM P450Cla (C10), 1 µM (C8, C6), Tris-HCl pH 7.5, RT, triplicate; for specific activity U mg^-1: P450Cla 48 kDa, values only relevant at initial rate; for Coupling*: mol product per mol H2O2
Method: Hydroxylation of selected fatty acids was carried out using a fresh preparation of purified P450Cla. P450Cla was characterised for key catalytic parameters specific activities were determined for three selected substrates as shown in Table 1. Table 1: Catalytic and kinetic characterization of P450Cla for conversion of 10 mM of selected fatty acids. All reactions were performed in triplicate.
Conditions: 0.5 µM P450Cla used in reactions with C10; 1 µM P450Cla used in reactions with C8 and C6; All reactions were performed in Tris-HCl (pH 7.5, 0.1 M) at RT and 170 rpm shaking in closed glass vials; *molProduct^-1 molH2O2^-1; ^§molecular weight of P450Cla is 48 kDa, values only relevant at initial rate.

L- and D-HICDH = assay: oxidation of alpha-hydroxy acids with L- and D-HICDH, NADH formation at 340 nm; format: biochemical; details: for NADH concentration: after 1 min reaction time, estimated (Figure 2)
Method: A modified protocol for oxidation of 2-hydroxy acids with L-and D-HICDH was established allowing oxidation of 2-hydroxyhexanoic acid and 2-hydroxyoctanoic acid (both commercial standards) that are produced in step 1 of the cascade (Scheme 1). Reactions contained 1 or 10 mM substrate, 1 % DMSO, 10 mM NAD+ and 0.25 mg of L- and D-HICDH (cell free freeze-dried lysates) in a final volume of 1 ml Tris-HCl (pH 8.5, 0.1 M). Oxidation of the α-hydroxy acid substrates was successful as indicated by increasing UV absorption at 340 nm, corresponding to (concomitant) formation of NADH (Figure 2).

YcnD = YcnD (Bacillus subtilis, UniProt P94424); assay: oxidation/dehydrogenation of alpha-hydroxy acids 2a-b, YcnD alone; details: 10 mM substrate; YcnD without HICDH; KPi pH 7.5; RT, 24 h
D/L-HICDH = assay: oxidation/dehydrogenation of alpha-hydroxy acids 2a-b using D/L-HICDH; format: biochemical; details: 10 mM substrate; KPi pH 7.5; 1 mM NAD+ (also 6.75 mM); RT, 24 h
D/L-HICDH-YcnD = assay: oxidation/dehydrogenation of alpha-hydroxy acids 2a-b using D/L-HICDH with NADH-oxidase YcnD; format: biochemical; details: 10 mM substrate; with YcnD and catalase; KPi pH 7.5; 1 mM NAD+ (also 6.75 mM); RT, 24 h
P450Cla [2] = assay: conversion of fatty acid substrates 1a-d with P450Cla, oxidant H2O2; format: biochemical; details: for 2a-d: H2O2; for Conversion: 3 µM P450Cla, 24 h, RT, values marked a based on substrate depletion
Method: (§1) P450Cla was ordered as synthetic gene and cloned into the pET28a expression vector. […] The dialysis buffer was supplemented with 300 mM NaCl to prevent precipitation of P450Cla. Next, hydroxylation of fatty acid substrates 1a-d (scheme 2) was performed employing purified P450Cla and P450BSß. The oxidant source was varied in case of P450Cla while only H2O2 was used with P450BSß.
Reaction conditions for P450Cla: 3µM P450Cla; Tris-HCl (pH 7.5; 0.1 M); 2.5 to 5 % EtOH (cosolvent for the substrate).
(§2) All reactions were performed in closed glass vials for 24 h reaction time at RT with 170 rpm shaking. The reactions were quenched by addition of 100 µl 5 N HCl. Extractions were performed with 500 µl EtOAc containing 0.1 % 1-decanol as internal standard. After drying over Na2SO4, derivatization of acids to corresponding methyl esters was realized by mixing 150 µl of organic phase with 90µl of MeOH prior to supplementation of 20 µl of TMSCHN2 for esterification. Samples were analyzed by GC-FID and GC-MS. Commercial standards of 2-hydroxycaproic acid (2a), 2-hydroxyoctanoic acid (2b) and 2-oxooctanoic acid (4b) were used as references. Calibration curves were obtained from standards 1a-d and 2a-b prepared identically to the reaction mixtures (5 concentration points from 10 µM to 1 mM).

CYPBSß = target: T1, CYPBSß (Bacillus subtilis, UniProt O31440); assay: conversion of fatty acid substrates with CYPBSß, oxidant H2O2; format: biochemical; details: for 2a-d: H2O2; for Conversion: 3 µM P450BSß, KPi pH 7.0, 24 h, values marked a based on substrate depletion
T1 construct: made in house
Method: as §1
Reaction conditions for P450BSß: 3µM P450BSß; KPi buffer (pH 7.0; 0.1 M); 5 % EtOH (cosolvent). […] All products were identified by GC-MS and/or comparison with authentic materials.
as §2

P450 BM3 variant M2 = target: T2, P450 BM3 variant M2 (Priestia megaterium, UniProt P14779, I402M/R48S/Y52W); format: biochemical, Bacillus megaterium; details: 50 mM substrate; O2 as oxidant; GDH/glucose NADPH regeneration; absent in control reactions
T2 construct: made in house; host or cells: E. coli BL21 Gold (DE3)-derived E. coli lacIQ1 Gold (DE3)
Method: Ethyl acetoxy-butanoate (EAB) was converted with P450 BM3 variant M2 employing O2 as oxidant.
The essential NADPH cofactor was regenerated using a glucose dehydrogenase (GDH) and glucose as shown in Scheme 3. [drawing 4]
Reactions were done in 1 mL scale (KPi-buffer, pH 7.5, 0.1 M) containing following components: • 12 U GDH • 100 mM glucose • 400 µM NADP+ • 50 mM EBA (substrate) in DMSO (5 % V/V DMSO final) • 50 mg cell free freeze dried lysate of P450 BM3 variant M2
For analysis, 100 µl of the reaction volume were mixed with 100 µl acetonitrile followed by centrifugation to remove insoluble particles. The supernatant was diluted 1:50 in H2O/acetonitrile (50:50; V/V) followed by injection into the LC-MS.
In addition, the product peaks elute earlier than the substrate (3.699 min) indicating a higher polarity possibly due to a hydroxylation of EAB.

[3] = 5 mM substrate, H2O2 9.6 mM total
[4] = 10 mM substrate, H2O2 19.2 mM total
[5] = 5 mM substrate, H2O2 8 mM total
[6] = 10 mM substrate, H2O2 16 mM total

T1 sequence (O31440 whole entry): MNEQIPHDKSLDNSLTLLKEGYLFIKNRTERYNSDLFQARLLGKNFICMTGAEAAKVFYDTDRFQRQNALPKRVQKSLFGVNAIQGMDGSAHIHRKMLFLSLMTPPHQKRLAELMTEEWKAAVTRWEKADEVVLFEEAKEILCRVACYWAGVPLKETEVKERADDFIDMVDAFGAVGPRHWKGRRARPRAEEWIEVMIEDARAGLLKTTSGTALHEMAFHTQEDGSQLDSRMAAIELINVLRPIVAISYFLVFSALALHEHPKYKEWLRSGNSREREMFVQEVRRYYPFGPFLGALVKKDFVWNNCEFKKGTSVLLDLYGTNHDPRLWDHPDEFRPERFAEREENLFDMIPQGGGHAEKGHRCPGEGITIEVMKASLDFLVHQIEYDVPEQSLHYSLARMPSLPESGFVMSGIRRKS
T2 sequence (P14779 whole entry R48S/Y52W/I402M): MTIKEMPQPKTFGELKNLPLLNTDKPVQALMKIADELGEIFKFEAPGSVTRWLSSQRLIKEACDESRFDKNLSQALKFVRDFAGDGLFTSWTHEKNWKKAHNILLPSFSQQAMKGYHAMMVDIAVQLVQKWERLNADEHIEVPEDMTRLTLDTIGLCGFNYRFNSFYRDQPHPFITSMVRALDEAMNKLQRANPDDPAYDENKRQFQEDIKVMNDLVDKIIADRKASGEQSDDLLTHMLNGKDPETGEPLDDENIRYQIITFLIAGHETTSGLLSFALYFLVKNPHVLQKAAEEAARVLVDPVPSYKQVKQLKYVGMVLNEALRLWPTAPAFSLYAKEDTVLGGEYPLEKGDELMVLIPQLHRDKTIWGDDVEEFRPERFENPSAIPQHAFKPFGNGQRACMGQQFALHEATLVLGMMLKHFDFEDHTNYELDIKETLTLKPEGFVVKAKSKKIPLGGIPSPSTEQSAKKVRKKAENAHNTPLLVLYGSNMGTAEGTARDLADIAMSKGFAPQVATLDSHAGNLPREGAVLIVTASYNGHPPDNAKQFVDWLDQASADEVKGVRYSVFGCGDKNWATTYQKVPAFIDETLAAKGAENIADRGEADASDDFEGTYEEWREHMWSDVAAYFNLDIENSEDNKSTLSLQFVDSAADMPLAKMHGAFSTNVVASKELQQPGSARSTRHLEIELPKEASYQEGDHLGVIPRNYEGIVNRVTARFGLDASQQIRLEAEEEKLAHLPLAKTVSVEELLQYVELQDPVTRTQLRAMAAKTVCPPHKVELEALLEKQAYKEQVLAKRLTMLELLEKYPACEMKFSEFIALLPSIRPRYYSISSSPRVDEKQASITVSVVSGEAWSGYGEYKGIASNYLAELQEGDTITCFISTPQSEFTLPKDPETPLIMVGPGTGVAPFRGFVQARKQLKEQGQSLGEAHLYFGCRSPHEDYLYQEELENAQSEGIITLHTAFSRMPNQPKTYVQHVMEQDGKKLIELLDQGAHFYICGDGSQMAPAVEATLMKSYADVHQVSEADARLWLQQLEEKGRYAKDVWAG
Chain of YcnD (P94424 whole entry): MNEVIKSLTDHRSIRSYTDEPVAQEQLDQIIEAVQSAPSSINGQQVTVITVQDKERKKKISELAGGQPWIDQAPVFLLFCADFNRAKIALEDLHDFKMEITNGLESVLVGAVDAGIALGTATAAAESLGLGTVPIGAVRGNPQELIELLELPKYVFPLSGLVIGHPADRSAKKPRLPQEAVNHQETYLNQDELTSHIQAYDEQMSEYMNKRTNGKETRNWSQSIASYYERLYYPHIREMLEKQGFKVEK

CCCCCCCC(=O)O [Substrate C8, octanoic acid]
specific activity (P450Cla [1]): ≥ 1 U mg^-1 | Product (P450Cla [1]; 5 min, H2O2 0.8 mM): 0.49 ± 0.02 mM | Product (P450Cla [1]; 15 min, H2O2 0.8 mM): 0.51 ± 0.01 mM | Product (P450Cla [1]; 30 min, H2O2 1.6 mM): 0.94 ± 0.05 mM | TON (P450Cla [1]; 5 min, H2O2 0.8 mM): 98 min⁻¹ | TTN (P450Cla [1]; 5 min, H2O2 0.8 mM): 488 | specific activity U mg^-1 (P450Cla [1]; 5 min, H2O2 0.8 mM): 2.0 U mg^-1 | Coupling* (P450Cla [1]; 5 min, H2O2 0.8 mM): 61% | TON (P450Cla [1]; 15 min, H2O2 0.8 mM): 34 min⁻¹ | TTN (P450Cla [1]; 15 min, H2O2 0.8 mM): 506 | specific activity U mg^-1 (P450Cla [1]; 15 min, H2O2 0.8 mM): 07 U mg^-1 | Coupling* (P450Cla [1]; 15 min, H2O2 0.8 mM): 63% | TON (P450Cla [1]; 30 min, H2O2 1.6 mM): 31 min⁻¹ | TTN (P450Cla [1]; 30 min, H2O2 1.6 mM): 938 | specific activity U mg^-1 (P450Cla [1]; 30 min, H2O2 1.6 mM): 0.7 U mg^-1 | Coupling* (P450Cla [1]; 30 min, H2O2 1.6 mM): 59%

CCCCC(O)C(=O)O (stereo not drawn) [Substrate 2a, 2-hydroxycaproic acid]
NADH concentration (L- and D-HICDH; 1 mM substrate): 45 µM | NADH concentration (L- and D-HICDH; 10 mM substrate): 142 µM | Oxidation of the α-hydroxy acid substrates (L- and D-HICDH; 1 or 10 mM substrate, 10 mM NAD+, pH 8.5, UV absorption at 340 nm): successful | α-Ketoacid 4a/b detected [Y/N] (YcnD): No | α-Ketoacid 4a/b detected [Y/N] (D/L-HICDH): No | α-Ketoacid 4a/b detected [Y/N] (D/L-HICDH-YcnD): No

CCCCCC(=O)O [Substrate 1a, hexanoic acid]
2a-d (P450Cla [2]; 5 mM substrate): 3.1 mM | Conversion (P450Cla [2]; [3]): 62% | Conversion (P450Cla [2]; [4]): 51% | 2a-d (P450Cla [2]; 10 mM substrate, values marked c outside of calibration range): 5.1^c mM | 2a-d (CYPBSß; 5 mM substrate): 08 mM | Conversion (CYPBSß; [5]): 16% | α/β-Regioselectivity (2a-d vs 3a-d) (CYPBSß; 5 mM substrate, share of 2a, 3a not detected): 2a >95%^e | 2a-d (CYPBSß; 10 mM substrate): 1.1 mM | Conversion (CYPBSß; [6]): 11% | α/β-Regioselectivity (2a-d vs 3a-d) (CYPBSß; 10 mM substrate, share of 2a, 3a not detected): 2a >95%^e

Ethyl acetoxy-butanoate [EAB]
products of mass 190.08+1 (LC-MS) (P450 BM3 variant M2): formation of two product peaks

CCCCCCCCCC(=O)O [Substrate 1c, decanoic acid]
Conversion (P450Cla [2]; [3]): >99^a % | Conversion (P450Cla [2]; [4]): >99^a % | Conversion (CYPBSß; [5]): 54^a % | α/β-Regioselectivity (2a-d vs 3a-d) (CYPBSß; 5 mM substrate, ratio α-hydroxy/β-hydroxy product): 2c/3c 64/36 | Conversion (CYPBSß; [6]): 46^a % | α/β-Regioselectivity (2a-d vs 3a-d) (CYPBSß; 10 mM substrate, ratio α-hydroxy/β-hydroxy product): 2c/3c 56/44
